Where two headings read alike, the source gives them in different places.
Columns and labels:
[1] = Acute toxicity in mice (LD50, Litchfield-Wilcoxon method); details: mouse, in vivo, Jcl:ICR female mice, observed for 7 days
Procedure: The prescribed amounts of the test drugs dispersed in 0.3% CMC aqueous solution at a rate of 20 mg/ml for oral administration and the test drugs dissolved in 10% ethanol isotonic sodium chloride solution as a rate of 200 mg/ml for intraperitoneal administration were applied using gastric probes and syringes, respectively.

[2] = system: granuloma growth; test: Granuloma growth inhibiting effect (paper disk implanted subcutaneously in rats); assay type: in vivo, male Donryu rats; details: oral, 10 days; for Granuloma Dry weight (mean): control 131.9 mg
Procedure: Effects of inhibiting granuloma growth were investigated by the method proposed by Fujimura et al. [Oyo Yakuri, 19 (3), 329 (1980)], using five-week old male Donryu rats. As paper disks, filter papers measuring 13 mm.0. and 28 mg and soaked in […] CMC solution (containing 0.1 mg/ml of 1 million unit dihydroxystreptomycin and penicillin, respectively) were used. A paper disk was implanted subcutaneously in the back of the rat under anesthesia. The test drugs dispersed in 0.3% CMC solutions were administered orally for 10 days; then, on the 11th day the granulomas were removed and their weights were measured. To the control group were administered the original 0.3% CMC solution containing no test drug.

[3] = Toxicity compared in words; assay type: in vivo; details: from LD50 of reference against LD50 of Table 1
[4] = system: male mice; details: DRUGS IN JAPAN (ETHICAL DRUGS), 9th Edition (1985), p.105; cited from earlier work
[5] = system: male rats; details: DRUGS IN JAPAN (ETHICAL DRUGS), 9th Edition (1985), p.105; cited from earlier work
[6] = system: leukocytic migration; details: in vitro, low concentration level; cited from earlier work
[7] = system: blood platelet agglutination; details: in vitro, low concentration level; cited from earlier work
[8] = in vivo; cited from earlier work
[9] = ip, intraperitoneal, dissolved in 10% ethanol isotonic sodium chloride solution, read-out: LD50, Intraperitoneal Administration
[10] = oral, dispersed in 0.3% CMC aqueous solution, read-out: LD50, Oral Administration

Row | SMILES | LD50 at 168 h [1, 9] [mg/kg] | LD50 at 168 h [1, 10] [mg/kg] | Granuloma Inhibition rate ([2]; 10 mg/kg/day) [%] | Granuloma Dry weight (mean) ([2]; 10 mg/kg/day) [mg] | Granuloma Inhibition rate ([2]; 50 mg/kg/day) [%] | Granuloma Dry weight (mean) ([2]; 50 mg/kg/day) [mg] | Granuloma Inhibition rate ([2]; 3 mg/kg/day) [%] | Granuloma Dry weight (mean) ([2]; 3 mg/kg/day) [mg] | Toxicity compared with PAL and the compounds of the present invention (in words) [3] | LD50 value [4] [mg/kg] | LD50 value [5] [mg/kg] | Inhibiting leukocytic migration (in words) [6] | Inhibiting blood platelet agglutination (in words) [7] | Metabolic rate (in words) [8]
1 | CO[C@H]1O[C@@H]2COC(c3ccc(OC(=O)c4ccccc4)c(OC(=O)c4ccccc4)c3)O[C@H]2[C@H](O)[C@H]1O (stereo partly drawn) [Ia1, Methyl-4,6-O-(3',4'-dibenzoyloxybenzylidene)-α-D-glucopyranoside] | 1900 | > 4000 | 29.8 | 92.6 | 43.7 | 74.3 | – | – | – | – | – | – | – | –
2 | CO[C@H]1O[C@@H]2COC(c3ccc(O)c(O)c3)O[C@H]2[C@H](O)[C@H]1O (stereo partly drawn) [Ib1, Methyl-4,6-O-(3',4'-dihydroxybenzylidene)-α-D-glucopyranoside] | > 3000 | > 4000 | 30.7 | 91.4 | 50.0 | 66.0 | – | – | – | – | – | – | – | –
3 | COc1ccc2c(c1)c(CC(=O)O)c(C)n2C(=O)c1ccc(Cl)cc1 [Indomethacin, indomethacin] | – | – | – | – | – | – | 45.9 | 71.3 | more toxic than both PAL and the compounds of the present invention | 30.2 | 29 | – | – | –
4 | O=Cc1ccc(O)c(O)c1 [PAL, protocatechualdehyde] | – | – | – | – | 34.2 | 86.8 | – | – | – | – | – | shows a suitable effect | shows a suitable effect | higher metabolic rate
